Assay results taken from patent publication US20260295053A1, “COMPOUNDS FOR DEGRADATION AND INHIBITION OF KRAS (G12D) PROTEIN” (Shenzhen Ionova Life Science Co., Ltd., priority 2023, published 2026).

Biological target: T1, KRAS (G12D) (Homo sapiens, UniProt P01116, G12D)
T1 construct: in-cell western with KRAS G12D antibody after 24 h
Assay: KRAS (G12D) cellular degradation assay in AsPC-1 cells
Assay type: cell-based
Details: 24 hours, antibody fluorescence (Odyssey CLX), DC50 half-maximal degradation concentration
Method: ASPC-1 and PK-59 cellular assays ASPC-1 (ATCC cat. CRL-1682) and PK-59 (Nanjing Cobioer, Cat. No. CBP61184) were used in KRAS cellular degradation, pERK inhibition and proliferation assays. The two cell lines were maintained following vendor's instructions. For monitoring KRAS (G12D) cellular degradation and pERK biomarker inhibition, cells were seeded into a 96-well plate with 22,000 and 16,000 cells/well for assays in ASPC-1 and PK-59, respectively. Cells were incubated at 37° C. with 5% CO2 and cell density was monitored until ^~90% confluency was reached. Compounds were serially diluted at a 1:3 ratio and dispensed into each well at final concentrations ranging from […] to 1.5 nM. After incubation for 24 hours, the culture media were removed and the cells were subjected to fixation, permeabilization and blocking (Intercept blocking buffer, Li-cor). For KRAS (G12D) degradation, the cells were treated with primary antibody (KRAS G12D antibody, Cell Signaling Technologies, Cat. No. CST14429) and for β-actin (β-actin mAb, Beyotime, Cat. No. AF-5001), and followed by secondary antibodies, Anti-rabbit IgG (H+L) (DyLight™ 800 4×PEG Conjugate) or IRDye® 680RD Goat anti-Mouse IgG. For pERK inhibition assay, cells were treated with primary antibodies for pERK (Phospho-p44/42 MAPK (Erk1/2) (Thr202/Tyr204) (D13.14.4E) XP® Rabbit mAb, Cell Signaling Technologies, Cat. No. CST-4370) and β-actin (β-actin mAb, Beyotime, Cat. No. AF-5001), and followed by secondary antibodies, Anti-rabbit IgG (H+L) (DyLight™ 800 4×PEG Conjugate) or IRDye® 680RD Goat anti-Mouse IgG. Fluorescence signals were read on Odyssey CLX instrument. For cell proliferation assays, cells were seeded into a 96-well plate at 3,500 and 800 cells/well for assays in ASPC-1 and PK-59, respectively. Cells were incubated at 37° C. with 5% CO2 for overnight. Compounds were serially diluted at a 1:3 ratio and dispensed into each well at final concentrations ranging from […] to 1.5 nM. After incubation for 6 days, cell viability reagent (CellTiter Glo, Promega, Cat. No. G7573) was added to each well and luminescence was recorded on Molecular Devices Spectramax iD3 instrument. IC50, half-maximal inhibitory concentration for pERK inhibition or cell proliferation, and DC50, half-maximal degradation concentration in KRAS (G12D) cellular degradation were determined by fitting the corresponding dose response curves using GraphPad Prism software.
Wherein “A” means the value <10 nM, “B” means 10 nM<the value <100 nM, “C” means 100 nM<the value <1000 nM, and “D” means the value >1000 nM, in which, the value means the value of DC50 or IC50. NT means not tested.

T1 sequence (P01116 1-188 isoform P01116-2 G12D): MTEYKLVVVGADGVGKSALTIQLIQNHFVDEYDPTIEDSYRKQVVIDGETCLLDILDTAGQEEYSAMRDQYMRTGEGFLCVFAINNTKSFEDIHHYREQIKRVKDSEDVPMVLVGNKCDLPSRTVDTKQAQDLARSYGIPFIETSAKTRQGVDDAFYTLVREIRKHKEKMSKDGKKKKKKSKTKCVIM

Structure (SMILES) | DC50 [nM]
CCn1nccc1-c1ccc([C@H](CO)NC(=O)[C@@H]2C[C@@H](O)CN2C(=O)[C@H](C(C)C)n2cc(-c3ccc(COc4c(-c5c(C)c(F)c(F)c6[nH]ncc56)c(C5CC5)cc5c(N6C[C@@H]7C[C@H]6CN7)nc(OC6CCC7(CC6)COC7)nc45)cc3)nn2)cc1 [Example 110, (2S,4R)-1-((2S)-2-(4-(4-(((2-((2-oxaspiro[3.5]nonan-7-yl)oxy)-4-((1S,4S)-2,5-diazabicyclo[2.2.1]heptan-2-yl)-6-cyclopropyl-7-(6,7-difluoro-5-methyl-1H-indazol-4-yl)quinazolin-8-yl)oxy)methyl)phenyl)-1H-1,2,3-triazol-1-yl)-3-methylbutanoyl)-N—((R)-1-(4-(1-ethyl-1H-pyrazol-5-yl)phenyl)-2-hydroxyethyl)-4-hydroxypyrrolidine-2-carboxamide] | < 10
CO[C@@H](C)COc1nc(N2C[C@@H]3C[C@H]2CN3)c2cc(C3CC3)c(-c3c(C)c(F)cc4[nH]ncc34)c(OCc3ccc(-c4cn([C@H](C(=O)N5C[C@H](O)C[C@H]5C(=O)N[C@H](C#Cc5cccc6sc(C)nc56)CO)C(C)C)nn4)cc3)c2n1 [Example 117, (2S,4R)-1-((2S)-2-(4-(4-(((4-((1S,4S)-2,5-diazabicyclo[2.2.1]heptan-2-yl)-6-cyclopropyl-7-(6-fluoro-5-methyl-1H-indazol-4-yl)-2-((S)-2-methoxypropoxy)quinazolin-8-yl)oxy)methyl)phenyl)-1H-1,2,3-triazol-1-yl)-3-methylbutanoyl)-4-hydroxy-N—((R)-1-hydroxy-4-(2-methylbenzo[d]thiazol-4-yl)but-3-yn-2-yl)pyrrolidine-2-carboxamide] | 10 to 100
CO[C@@H](C)COc1nc(N2C[C@@H]3C[C@H]2CN3)c2cc(C3CC3)c(-c3c(C)c(F)cc4[nH]ncc34)c(OCc3ccc(-c4cn([C@H](C(=O)N5C[C@H](O)C[C@H]5C(=O)N[C@H](C#Cc5cncc6ncsc56)CO)C(C)C)nn4)cc3)c2n1 [Example 118, (2S,4R)-1-((2S)-2-(4-(4-(((4-((1S,4S)-2,5-diazabicyclo[2.2.1]heptan-2-yl)-6-cyclopropyl-7-(6-fluoro-5-methyl-1H-indazol-4-yl)-2-((S)-2-methoxypropoxy)quinazolin-8-yl)oxy)methyl)phenyl)-1H-1,2,3-triazol-1-yl)-3-methylbutanoyl)-4-hydroxy-N—((R)-1-hydroxy-4-(thiazolo[4,5-c]pyridin-7-yl)but-3-yn-2-yl)pyrrolidine-2-carboxamide] | 10 to 100
Cc1ncsc1-c1ccc([C@H](CO)NC(=O)[C@@H]2C[C@@H](O)CN2C(=O)[C@H](C(C)C)n2cc(-c3ccc(COc4c(-c5c(C)c(F)c(F)c6[nH]ncc56)c(C5CCC5)cc5c(N6C[C@@H]7C[C@H]6CN7)nc(OC6CCOCC6)nc45)cc3)nn2)cc1 [Example 120, (2S,4R)-1-((2S)-2-(4-(4-(((4-((1S,4S)-2,5-diazabicyclo[2.2.1]heptan-2-yl)-6-cyclobutyl-7-(6,7-difluoro-5-methyl-1H-indazol-4-yl)-2-((tetrahydro-2H-pyran-4-yl)oxy)quinazolin-8-yl)oxy)methyl)phenyl)-1H-1,2,3-triazol-1-yl)-3-methylbutanoyl)-4-hydroxy-N—((R)-2-hydroxy-1-(4-(4-methylthiazol-5-yl)phenyl)ethyl)pyrrolidine-2-carboxamide] | 10 to 100
CO[C@@H](C)COc1nc(N2C[C@@H]3C[C@H]2CN3)c2cc(C3CC3)c(-c3c(C)c(F)cc4[nH]ncc34)c(OCc3ccc(-c4cn([C@H](C(=O)N5C[C@H](O)C[C@H]5C(=O)N[C@H](C#Cc5ccccc5)CO)C(C)C)nn4)cc3)c2n1 [Example 123, (2S,4R)-1-((2S)-2-(4-(4-(((4-((1S,4S)-2,5-diazabicyclo[2.2.1]heptan-2-yl)-6-cyclopropyl-7-(6-fluoro-5-methyl-1H-indazol-4-yl)-2-((S)-2-methoxypropoxy)quinazolin-8-yl)oxy)methyl)phenyl)-1H-1,2,3-triazol-1-yl)-3-methylbutanoyl)-4-hydroxy-N—((R)-1-hydroxy-4-phenylbut-3-yn-2-yl)pyrrolidine-2-carboxamide] | 10 to 100
CCn1nccc1-c1ccc([C@H](CO)NC(=O)[C@@H]2C[C@@H](O)CN2C(=O)[C@H](C(C)C)n2cc(-c3ccc(COc4c(-c5c(C)c(F)cc6[nH]ncc56)c(C5CC5)cc5c(N6C[C@@H]7C[C@H]6CN7)nc(N6CCC(OC)CC6)nc45)cc3)nn2)cc1 [Example 124, (2S,4R)-1-((2S)-2-(4-(4-(((4-((1S,4S)-2,5-diazabicyclo[2.2.1]heptan-2-yl)-6-cyclopropyl-7-(6-fluoro-5-methyl-1H-indazol-4-yl)-2-(4-methoxypiperidin-1-yl)quinazolin-8-yl)oxy)methyl)phenyl)-1H-1,2,3-triazol-1-yl)-3-methylbutanoyl)-N—((R)-1-(4-(1-ethyl-1H-pyrazol-5-yl)phenyl)-2-hydroxyethyl)-4-hydroxypyrrolidine-2-carboxamide] | < 10
CCn1nccc1-c1ccc([C@H](CO)NC(=O)[C@@H]2C[C@@H](O)CN2C(=O)[C@H](C(C)C)n2cc(-c3ccc(COc4c(-c5c(C)c(F)cc6[nH]ncc56)c(C5CC5)cc5c(N6C[C@@H]7C[C@H]6CN7)nc(N6CCC(COC)C6)nc45)cc3)nn2)cc1 (stereo partly drawn) [Example 125, (2S,4R)-1-((2S)-2-(4-(4-(((4-((1S,4S)-2,5-diazabicyclo[2.2.1]heptan-2-yl)-6-cyclopropyl-7-(6-fluoro-5-methyl-1H-indazol-4-yl)-2-(3-(methoxymethyl)pyrrolidin-1-yl)quinazolin-8-yl)oxy)methyl)phenyl)-1H-1,2,3-triazol-1-yl)-3-methylbutanoyl)-N—((R)-1-(4-(1-ethyl-1H-pyrazol-5-yl)phenyl)-2-hydroxyethyl)-4-hydroxypyrrolidine-2-carboxamide] | 10 to 100
CCn1nccc1-c1ccc([C@H](CO)NC(=O)[C@@H]2C[C@@H](O)CN2C(=O)[C@H](C(C)C)n2cc(-c3ccc(COc4c(-c5c(C)c(F)cc6[nH]ncc56)c(C5CC5)cc5c(N6C[C@@H]7C[C@H]6CN7)nc(N6CC(OC)C6)nc45)cc3)nn2)cc1 [Example 126, (2S,4R)-1-((2S)-2-(4-(4-(((4-((1S,4S)-2,5-diazabicyclo[2.2.1]heptan-2-yl)-6-cyclopropyl-7-(6-fluoro-5-methyl-1H-indazol-4-yl)-2-(3-methoxyazetidin-1-yl)quinazolin-8-yl)oxy)methyl)phenyl)-1H-1,2,3-triazol-1-yl)-3-methylbutanoyl)-N—((R)-1-(4-(1-ethyl-1H-pyrazol-5-yl)phenyl)-2-hydroxyethyl)-4-hydroxypyrrolidine-2-carboxamide] | 10 to 100
CO[C@@H](C)COc1nc(N2C[C@@H]3C[C@H]2CN3)c2cc(C3CC3)c(-c3c(C)c(F)cc4[nH]ncc34)c(OCc3ccc(-c4cn([C@H](C(=O)N5C[C@H](O)C[C@H]5C(=O)N[C@H](C#Cc5cccc6c5cnn6C)CO)C(C)C)nn4)cc3)c2n1 [Example 134, (2S,4R)-1-((2S)-2-(4-(4-(((4-((1S,4S)-2,5-diazabicyclo[2.2.1]heptan-2-yl)-6-cyclopropyl-7-(6-fluoro-5-methyl-1H-indazol-4-yl)-2-((S)-2-methoxypropoxy)quinazolin-8-yl)oxy)methyl)phenyl)-1H-1,2,3-triazol-1-yl)-3-methylbutanoyl)-4-hydroxy-N—((R)-1-hydroxy-4-(1-methyl-1H-indazol-4-yl)but-3-yn-2-yl)pyrrolidine-2-carboxamide] | 10 to 100
CCn1nccc1-c1ccc([C@H](CO)NC(=O)[C@@H]2C[C@@H](O)CN2C(=O)[C@H](C(C)C)n2cc(-c3ccc(COc4c(-c5c(C)c(F)cc6[nH]ncc56)c(C5CCC5)cc5c(N6C[C@@H]7C[C@H]6CN7)nc(OC6CCC7(CC6)COC7)nc45)cc3)nn2)cc1 [Example 137, (2S,4R)-1-((2S)-2-(4-(4-(((2-((2-oxaspiro[3.5]nonan-7-yl)oxy)-4-((1S,4S)-2,5-diazabicyclo[2.2.1]heptan-2-yl)-6-cyclobutyl-7-(6-fluoro-5-methyl-1H-indazol-4-yl)quinazolin-8-yl)oxy)methyl)phenyl)-1H-1,2,3-triazol-1-yl)-3-methylbutanoyl)-N—((R)-1-(4-(1-ethyl-1H-pyrazol-5-yl)phenyl)-2-hydroxyethyl)-4-hydroxypyrrolidine-2-carboxamide] | < 10
